Values of other authors, collected in patent US20110009340A1, “COMBINATION OF AN IRON CHELATOR AND AN IMMUNOSUPPRESSANT AND USE THEREOF” (NOVARTIS AG, priority 2008, published 2011).

## CC(=O)N(O)CCCCCNC(=O)CCC(=O)N(O)CCCCCNC(=O)CCC(=O)N(O)CCCCCN.CS(=O)(=O)O [Deferoxamine mesylate USP, N-[5-[3-[(5-aminopentyl)hydroxycarbamoyl]propionamido]pentyl]-3-[[5-(N-hydroxyacetamido)pentyl]carbamoyl]propionohydroxamic acid monomethanesulfonate (salt)]
methanol
  solubility in methanol: slightly soluble
water
  solubility in water: freely soluble
